Measurements from article PMC11487390, “Design and Synthesis of 1,3-Diarylpyrazoles and Investigation of Their Cytotoxicity and Antiparasitic Profile” (International Journal of Molecular Sciences, 2024).
Counter-ions that a name gives are not always drawn. Like-named read-outs stand apart in the source and are kept apart here.

Columns and labels:
[1] = test system: Trypanosoma cruzi Tulahuen CL2 strain; assay: Intracellular T. cruzi assay in MRC-5 cells (β-galactosidase/CPRG, 7 days); type: cell-based; conditions: intracellular in MRC-5 cells
Outline: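 MRC-5SV2 fibroblasts infected with β-galactosidase-expressing T. cruzi Tulahuen CL2 and exposed to compounds (10 concentrations, 64 µM to 0.2 nM; DMSO <1%) for 7 days at 37 °C, 5% CO2. Parasite growth read by CPRG absorbance at 540 nm after 4 h versus untreated infected controls; EC50 calculated.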

[2] = test system: T. b. brucei Squib 427 strain; assay: T. b. brucei growth assay (resazurin, 3 days); type: cell-based, Trypanosoma brucei brucei; conditions: read-out: T. b. bruc. (EC50), 3 days
Outline: (§1)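 Bloodstream parasites in HMI-9 with 10% FCS at 37 °C, 5% CO2, 1.5 × 10^4 (T. b. brucei) or 4 × 10^3 (T. b. rhodesiense) per well, exposed to 10 concentrations from 64 µM to 0.2 nM. After 3 days resazurin added, fluorescence read after 24 h or 6 h respectively; EC50 derived.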

[3] = Cytotoxicity assay, MRC-5SV2 cells, resazurin, 3 days; type: cell-based; conditions: human, MRC-5SV2 human lung fibroblast cells, MRC-5 cells, highest concentration 64 µM
Outline: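 MRC-5SV2 fibroblasts (1.5 × 10^5 cells/mL, MEM, 5% FCS) exposed 3 days at 37 °C, 5% CO2 to 64–0.25 µM (4-fold), DMSO <1%. Viability by resazurin (10 µg mL^−1, 4 h) fluorescence; EC50 interpolated from flanking points around 50% inhibition.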

[4] = target: Toll-like receptor 9 (TLR9); parameters: method as in PMID 27537371; conditions: readout of a cellular assay, cited from earlier work
[5] = test system: L. infantum MHOM/MA(BE)/67 strain; assay: L. infantum intracellular amastigote assay in PMM (Giemsa, 5 days); type: cell-based, Leishmania infantum
Outline: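 Primary mouse peritoneal macrophages were infected with spleen-derived amastigotes (3 × 10^4 PMM + 4.5 × 10^5 parasites/well), and compound was added 2 h post-infection. Ten concentrations (64 µM to 0.2 nM; DMSO <1%) were incubated 5 days at 37 °C, 5% CO2. Giemsa-stained amastigotes per macrophage were counted microscopically to give EC50.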

[6] = test system: primary mouse macrophages (PMMs); assay: Cytotoxicity against primary peritoneal mouse macrophages (PMM); type: cell-based; conditions: Macrophage
Method: The series of final products (13–69) was investigated in vitro on the human fetal lung fibroblast cell line MRC-5 (Table 1) to assess cytotoxicity toward normal (i.e., non-malignant) human cells. […] As explained earlier, these are important pathogens for humans or cattle (T. b. brucei) and a persistent need for new therapeutics exists for these parasites. As a part of the antiparasitic tests, cytotoxicity against primary mouse macrophages (PMMs) was also evaluated. These murine cells serve as host cells for parasites in the L. infantum assay. Therefore, the murine macrophage assay not only offers additional cytotoxicological insight but is also essential to interpreting the readout of the L. infantum assay.
The MRC-5SV2 human lung fibroblast cell line was cultured in MEM + Earle’s salts-medium, supplemented with 2 mM L-glutamine, 16.5 mM NaHCO3, and 5% inactivated fetal calf serum. For evaluating the antileishmanial activity, the L. infantum MHOM/MA(BE)/67 strain was used. This strain was maintained in a Golden hamster (Mesocricetus auratus). Amastigotes were collected from the spleen of an infected donor hamster using differential centrifugation. Primary peritoneal mouse macrophages were used as host cells and were collected 2 days after peritoneal stimulation with a 2% potato starch suspension. For the intracellular T. cruzi assays, the Tulahuen CL2 strain was used that expresses β-galactosidase. The strain was maintained in MRC-5SV2 cells in MEM medium. The T. b. brucei Squib 427 strain or T. b. rhodesiense STIB-900 strain was used for screening against the extracellular African trypanosomes. The strains were maintained in Hirumi’s Modified Iscove’s medium-9 (HMI-9), supplemented with 10% inactivated fetal calf serum. All cultures and assays were performed at 37 °C with 5% CO2.
Primary peritoneal mouse macrophages (PMMs) were prepared in RPMI-1640 medium, supplemented with 2 mM L-glutamine, 16.5 mM NaHCO3, and 5% inactivated fetal calf serum. The macrophages are infected after 48 h with spleen-derived L. infantum amastigotes (3 × 10^4 PMM + 4.5 × 10^5 parasites/well). The compounds were added after 2 h of infection. After 5 days incubation, parasite burdens (mean number of amastigotes/macrophage) were assessed microscopically after staining with a 10% Giemsa solution and EC50 values were calculated.

[7] = test system: T. b. rhodesiense STIB-900 strain; assay: T. b. rhodesiense growth assay (resazurin, 3 days); type: cell-based, Trypanosoma brucei rhodesiense; conditions: read-out: T. b. rhod. (EC50), 3 days
Outline: as §1

[8] = Trypanosoma cruzi, TULAHUEN, MRC5, 168 h
[9] = Leishmania infantum, 120 h, amastigotes in PMM, 5 days, read-out: L. inf. (EC50)
[10] = Trypanosoma brucei, RHODESIENSE, 72 h

SMILES | EC50 [1, 8] | EC50 [1] | EC50 [2] | EC50 ([2]; listed as 26/HIT 8) | EC50 at 3 days [3] | EC50 ([4]; read-out: EC50 for TLR9 antagonism) | EC50 ([5]; Leishmania infantum, 120 h, read-out: L. inf. (EC50, µM), amastigotes in PMM, 5 days) | EC50 ([5]; read-out: L. inf. (EC50), amastigotes in PMM, 5 days) | EC50 [6] | EC50 [7] | EC50 ([7]; listed as 26/HIT 8) | EC50 for TLR9 antagonism [4] | EC50 ([2]; Trypanosoma brucei, 72 h) | EC50 [5, 9] | EC50 [7, 10]
c1ccc(-n2cc(CNCCN3CCCC3)c(-c3ccc4c(c3)OCCO4)n2)cc1 [Compound 26, N-((3-(2,3-dihydrobenzo[b][1,4]dioxin-6-yl)-1-phenyl-1H-pyrazol-4-yl)methyl)-2-(pyrrolidin-1-yl)ethan-1-amine dihydrochloride] | < 10 µM | 7.92 µM | 1.52 µM | < 10 µM | 21.7 µM | 3.16 µM | < 10 µM | 8.3 µM | 32 µM | 1.75 µM | < 10 µM | – | – | – | –
CN(C)CCCNCc1cn(-c2ccccc2)nc1-c1ccc2c(c1)OCCO2.Cl.Cl [Compound 29, N^1-((3-(2,3-dihydrobenzo[b][1,4]dioxin-6-yl)-1-phenyl-1H-pyrazol-4-yl)methyl)-N^3,N^3-dimethylpropane-1,3-diamine dihydrochloride] | – | – | – | – | 5.14 µM | – | – | – | – | – | – | grossly comparable potency | – | – | –
c1ccc(NCc2cn(-c3ccccc3)nc2-c2ccc3c(c2)OCCO3)cc1 [Compound 13, N-((3-(2,3-dihydrobenzo[b][1,4]dioxin-6-yl)-1-phenyl-1H-pyrazol-4-yl)methyl)aniline] | 2.23 µM | – | – | – | > 64 µM | – | – | – | > 64 µM | – | – | – | 31.4 µM | 10.8 µM | 7.32 µM
O=C(c1cn(-c2ccccc2)nc1-c1ccc2c(c1)OCCO2)N1CCOCC1 [Compound 40, (3-(2,3-dihydrobenzo[b][1,4]dioxin-6-yl)-1-phenyl-1H-pyrazol-4-yl)(morpholino)methanone] | > 64 µM | – | – | – | > 64 µM | – | – | – | > 64 µM | – | – | – | > 64 µM | > 64 µM | > 64 µM
